Results published in BindingDB's records for doi:10.7270/Q2736PBV (Broad Institute, 2009).

Biological target: T1, Streptokinase A (Streptococcus pyogenes serotype M1, UniProt P10520)
T1 sequence (P10520 whole entry): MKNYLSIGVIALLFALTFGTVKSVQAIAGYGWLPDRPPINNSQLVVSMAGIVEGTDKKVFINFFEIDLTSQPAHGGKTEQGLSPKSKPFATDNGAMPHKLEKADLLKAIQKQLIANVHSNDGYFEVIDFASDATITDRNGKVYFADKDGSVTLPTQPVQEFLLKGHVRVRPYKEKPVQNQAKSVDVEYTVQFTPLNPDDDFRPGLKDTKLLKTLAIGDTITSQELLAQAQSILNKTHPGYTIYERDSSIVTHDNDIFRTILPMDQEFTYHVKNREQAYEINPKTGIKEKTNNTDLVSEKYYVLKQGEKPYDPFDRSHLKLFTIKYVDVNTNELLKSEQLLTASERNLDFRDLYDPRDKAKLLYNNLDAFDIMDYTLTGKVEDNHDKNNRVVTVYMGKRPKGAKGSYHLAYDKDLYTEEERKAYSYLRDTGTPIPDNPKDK
Test: S. pyogenes streptokinase expression inhibitors, potency, dose response, plasminogen activation absorbance, OD405 (AID 1914)

With CN(C)c1ccc(C2CC(c3ccc(Cl)cc3OC(F)F)=Nc3ncnn32)cc1 (stereo not given) as the molecule, how does the EC50 read?
Its EC50 is greater than 150 µM.

With CCc1ccc2[nH]c(=O)c(C3c4ccc5cccnc5c4OC(=N)C3C#N)cc2c1 (stereo not given) as the molecule, how does the EC50 read?
Its EC50 is greater than 150 µM.

How did the EC50 turn out when COc1ccc(OC)c(NC=C2C(=O)NC(=S)N(Cc3ccccc3)C2=O)c1 was run?
Its EC50 is greater than 150 µM.

For O=C1C=CC([N+](=O)[O-])=CC1/C=N/NC(=O)C(O)(c1ccccc1)c1ccccc1 (stereo not given), which EC50 is on record?
Its EC50 is greater than 150 µM.

CCCCCCC(N=O)c1ccccn1 (stereo not given) was tested. Which EC50 did it give?
The EC50 was greater than 150 µM.

Which EC50 does the source give for C=CCn1c(-n2c(O)cc(Cc3ccccc3)c2O)nc2ccccc21 here?
The EC50 was greater than 150 µM.

With Cc1cc(C)c(N=Nc2c(C)[nH]n(C(N)=S)c2=O)c(C)c1 as the molecule, how does the EC50 read?
The EC50 was greater than 150 µM.

C=c1c(C#N)c(N)[nH]c2c(C#N)c(C)c(=Cc3ccc(C)cc3)c1=2 was tested. Which EC50 did it give?
The EC50 was 12.3 µM.

How did the EC50 turn out when C=CCn1c(SCC(=O)C(C#N)C(C)=N)nc2sc(C)c(C)c2c1=O (stereo not given) was run?
Its EC50 is greater than 150 µM.

Which EC50 does the source give for COc1cc(CN=Nc2nc(Nc3ccc(C)cc3)nc(-n3nc(C)cc3C)n2)cc(OC)c1OC here?
The EC50 was greater than 150 µM.

O=C1Nc2ccccc2SC1C=Nc1cccc(Cl)c1 (stereo not given) was tested. Which EC50 did it give?
The EC50 was greater than 150 µM.

How did the EC50 turn out when Cc1nn(-c2ccccc2)c(C)c1CN=Nc1nc2ccccc2[nH]1 was run?
Its EC50 is greater than 150 µM.

With CCC(C)N1C(=O)C(=CNNc2ccccc2)C(=O)NC1=S (stereo not given) as the molecule, how does the EC50 read?
Its EC50 is greater than 150 µM.

Which EC50 does the source give for O=C(Oc1cccc(CN=Nc2nc(Nc3ccccc3)nc(N3CCOCC3)n2)c1)c1ccco1 here?
The EC50 was greater than 150 µM.

With Cc1sc2ncnc(N=NCc3ccccc3O)c2c1C as the molecule, how does the EC50 read?
The EC50 was 8.21 µM.

For CC(N=Nc1ccc(Cl)c(Cl)c1)c1ccc(-n2ccnc2)cc1 (stereo not given), which EC50 is on record?
Its EC50 is 17.2 µM.

Which EC50 does the source give for CC(N=Nc1nc2ccccc2s1)c1ccc2c(c1)OCO2 (stereo not given) here?
The EC50 was greater than 150 µM.

With N#CC(C(=O)c1ccc([N+](=O)[O-])o1)c1nc2ccccc2[nH]1 (stereo not given) as the molecule, how does the EC50 read?
The EC50 was 27.6 µM.

For O=C1C([N+](=O)[O-])=CC(Cl)=CC1CN=Nc1nc2ccccc2s1 (stereo not given), which EC50 is on record?
The EC50 was greater than 150 µM.

With S=C1N=C(C23CC4CC(CC(C4)C2)C3)CC(c2ccc3c(c2)OCO3)N1 (stereo not given) as the molecule, how does the EC50 read?
Its EC50 is 22.5 µM.

O=C1C(=NNC(=S)Nc2ccccc2F)c2ccccc2N1Cc1ccc(F)cc1 was tested. Which EC50 did it give?
Its EC50 is 0.607 µM.

With CCOc1ccc(NC(=S)NNC2=c3ccccc3=NC2=O)cc1 as the molecule, how does the EC50 read?
The EC50 was greater than 150 µM.

With Cc1cc(C)nc(N=NCc2cc(Br)ccc2O)n1 as the molecule, how does the EC50 read?
The EC50 was greater than 150 µM.

How did the EC50 turn out when COC1=CC([N+](=O)[O-])=CC(/C=N/NC(=O)c2cc(-c3ccccc3)nc3ccccc23)C1=O (stereo not given) was run?
The EC50 was greater than 150 µM.

Cc1cc(N=NC(C)c2ccccc2O)nc(-c2ccccc2O)n1 (stereo not given) was tested. Which EC50 did it give?
Its EC50 is 14 µM.

For COc1cccc(-n2c(O)c3[nH][nH]c(C(=O)CN4C(=O)c5ccccc5C4=O)c-3c2=O)c1, which EC50 is on record?
The EC50 was greater than 150 µM.

Cc1ccc2nc(-n3c(O)c[nH]c3=S)sc2c1 was tested. Which EC50 did it give?
Its EC50 is greater than 150 µM.

With COc1ccc(CC(=O)N/N=C/C2C=C([N+](=O)[O-])C=C(Br)C2=O)cc1 (stereo not given) as the molecule, how does the EC50 read?
Its EC50 is greater than 150 µM.

How did the EC50 turn out when CN(C)c1ccc(CN=Nc2nc3ccccc3o2)cc1 was run?
Its EC50 is greater than 150 µM.

Which EC50 does the source give for O=C(N/N=C/C1C=C([N+](=O)[O-])C=CC1=O)c1cccc(NC(=O)c2cccc(Cl)c2)c1 (stereo not given) here?
The EC50 was greater than 150 µM.

How did the EC50 turn out when CCOC(=O)c1sc(N2C(=O)C(=O)C(C(=O)c3ccco3)C2c2cccc(Cl)c2)nc1C (stereo not given) was run?
The EC50 was greater than 150 µM.

How did the EC50 turn out when CC(=NNC(=N)Sc1cc(O)n(-c2ccc(Cl)c(Cl)c2)c1O)c1cccs1 [1-(3,4-dichlorophenyl)-2,5-dioxo-3-pyrrolidinyl 2-[1-(2-thienyl)ethylidene]hydrazinecarbimidothioate] was run?
Its EC50 is 7.44 µM.

For CCc1ccc2nc(N3C(=O)C(=O)C(C(=O)c4ccco4)C3c3cccs3)sc2c1 (stereo not given) [1-(6-ethyl-1,3-benzothiazol-2-yl)-3-(furan-2-ylcarbonyl)-4-oxidanyl-2-thiophen-2-yl-2H-pyrrol-5-one], which EC50 is on record?
The EC50 was greater than 150 µM.

How did the EC50 turn out when Oc1cc(N(CCc2ccccc2)C(=S)Nc2ccccc2)c(O)n1-c1ccc(Br)cc1 [1-[1-(4-bromophenyl)-2,5-bis(oxidanylidene)pyrrolidin-3-yl]-3-phenyl-1-(2-phenylethyl)thiourea] was run?
Its EC50 is 2.67 µM.

How did the EC50 turn out when O=C1N=c2ccccc2=C1NNC(=S)NCCc1ccccc1 [1-[(2-oxo-3-indolyl)amino]-3-(2-phenylethyl)thiourea] was run?
The EC50 was greater than 150 µM.

Which EC50 does the source give for O=C1C(=NNC(=S)Nc2ccccc2F)c2ccccc2N1Cc1cccc(Cl)c1 [1-[(Z)-[1-[(3-chlorophenyl)methyl]-2-oxoindol-3-ylidene]amino]-3-(2-fluorophenyl)thiourea] here?
Its EC50 is greater than 150 µM.

Which EC50 does the source give for C[n+]1ccc(CN=Nc2nc(Cl)c(C#N)c(Cl)c2Cl)cc1 [2,4,5-trichloro-6-[2-[(1-methylpyridin-1-ium-4-yl)methylidene]hydrazinyl]pyridine-3-carbonitrile;chloride] here?
Its EC50 is greater than 150 µM.

For CC(N=Nc1nc(-c2ccccc2F)nc2ccccc12)c1ccccc1O (stereo not given) [2-(1-{[2-(2-Fluoro-phenyl)-quinazolin-4-yl]-hydrazono}-ethyl)-phenol], which EC50 is on record?
Its EC50 is greater than 150 µM.

For COc1ccccc1Nc1oc2cc(=O)ccc-2cc1C(N)=O [2-(2-methoxyanilino)-7-oxo-1-benzopyran-3-carboxamide], which EC50 is on record?
Its EC50 is greater than 150 µM.

For Cc1ccc(C(=O)C2C(=O)C(=O)N(Cc3ccco3)C2c2cccc(Br)c2)o1 (stereo not given) [2-(3-bromophenyl)-1-(2-furanylmethyl)-4-hydroxy-3-[(5-methyl-2-furanyl)-oxomethyl]-2H-pyrrol-5-one], which EC50 is on record?
Its EC50 is greater than 150 µM.

Oc1nc(Nc2ccc(Cl)cc2)sc1Cc1cccc(Cl)c1Cl [2-(4-chloroanilino)-5-(2,3-dichlorobenzyl)-2-thiazolin-4-one] was tested. Which EC50 did it give?
Its EC50 is 131 µM.

How did the EC50 turn out when Oc1nc(Nc2ccc(Cl)cc2)sc1Cc1cc(Cl)ccc1Cl [2-(4-chloroanilino)-5-(2,5-dichlorobenzyl)-2-thiazolin-4-one] was run?
The EC50 was greater than 150 µM.

Cc1[nH]c2ccccc2c1/C=C1\N=C(c2ccc(F)cc2)OC1=O [2-(4-fluorophenyl)-4-[(2-methyl-1H-indol-3-yl)methylene]-1,3-oxazol-5(4H)-one] was tested. Which EC50 did it give?
Its EC50 is 16.6 µM.

Which EC50 does the source give for Cc1ccc(Nc2nc(N=NCc3ccc4c(c3)OCO4)nc(N3CCOCC3)n2)cc1 [2-N-(1,3-benzodioxol-5-ylmethylideneamino)-4-N-(4-methylphenyl)-6-morpholin-4-yl-1,3,5-triazine-2,4-diamine] here?
Its EC50 is 111 µM.

O=C(O)c1ccccc1N=NCc1cc(Br)cc(Br)c1O [2-[2-[(E)-(3,5-dibromo-6-oxocyclohexa-2,4-dien-1-ylidene)methyl]hydrazinyl]benzoic acid] was tested. Which EC50 did it give?
Its EC50 is 32.4 µM.

With Cc1nn(-c2ccccc2)c(Cl)c1C1C2=C(CCCC2=O)OC(=N)C1C#N (stereo not given) [2-azanyl-4-(5-chloranyl-3-methyl-1-phenyl-pyrazol-4-yl)-5-oxidanylidene-4,6,7,8-tetrahydrochromene-3-carbonitrile] as the molecule, how does the EC50 read?
The EC50 was greater than 150 µM.

How did the EC50 turn out when Cc1nn(-c2ccccc2)c(Cl)c1C1C2=C(CC(C)(C)CC2=O)OC(=N)C1C#N (stereo not given) [2-azanyl-4-(5-chloranyl-3-methyl-1-phenyl-pyrazol-4-yl)-7,7-dimethyl-5-oxidanylidene-6,8-dihydro-4H-chromene-3-carbonitrile] was run?
Its EC50 is greater than 150 µM.

For Cc1ccc(NN=C(C=O)C(=O)c2ccc(Cl)cc2)cc1 [3-(4-chlorophenyl)-2-[(4-methylphenyl)hydrazinylidene]-3-oxopropanal], which EC50 is on record?
The EC50 was 50 µM.

Which EC50 does the source give for COc1ccc2nc(-n3c(O)c[nH]c3=S)sc2c1 [3-(6-methoxy-1,3-benzothiazol-2-yl)-2-sulfanylidene-imidazolidin-4-one] here?
The EC50 was greater than 150 µM.

For CCOc1cc(CN=Nc2cccc(C(=O)O)c2)ccc1OC(=O)c1ccccc1 [3-[(N''E)-N''-(4-benzoyloxy-3-ethoxy-benzylidene)hydrazino]benzoic acid], which EC50 is on record?
The EC50 was greater than 150 µM.

With CCOC(=O)C1C(=N)Oc2ccc3ccccc3c2C1c1ccc(O)cc1 (stereo not given) [3-amino-1-(4-hydroxyphenyl)-1H-benzo[f][1]benzopyran-2-carboxylic acid ethyl ester] as the molecule, how does the EC50 read?
The EC50 was 11.5 µM.

How did the EC50 turn out when Cc1cccc(NC(=O)C2=C(N)C(C(=O)N3CCOCC3)/C(=N/c3c(C)cccc3C)S2)c1 (stereo not given) [3-amino-5-(2,6-dimethylphenyl)imino-N-(3-methylphenyl)-4-(morpholine-4-carbonyl)-2H-thiophene-2-carboxamide] was run?
The EC50 was 3.32 µM.

How did the EC50 turn out when CCCCCCn1[nH]c(C)c(C(=O)c2ccc(Cl)cc2)c1=O [4-(4-Chloro-benzoyl)-2-hexyl-5-methyl-2,4-dihydro-pyrazol-3-one] was run?
Its EC50 is greater than 150 µM.

How did the EC50 turn out when C=CCOC(=O)C1=C(C)N=C(SCC)C(C#N)C1c1ccc(Cl)cc1 (stereo not given) [4-(4-Chloro-phenyl)-5-cyano-6-ethylsulfanyl-2-methyl-1,4-dihydro-pyridine-3-carboxylic acid allyl ester] was run?
Its EC50 is 8.34 µM.

For C=c1[nH]n(-c2ccccc2)c(=O)c1=C(C=Cc1cccc(OC)c1OC)c1ccc(Br)cc1 [4-[1-(4-Bromo-phenyl)-3-(2,3-dimethoxy-phenyl)-allylidene]-5-methyl-2-phenyl-2,4-dihydro-pyrazol-3-one], which EC50 is on record?
The EC50 was greater than 150 µM.

With O=C(O)c1ccc(N=NCc2ccc(OC(=O)c3cccc(Cl)c3)cc2)cc1 [4-[2-[[4-[(3-chlorophenyl)-oxomethoxy]phenyl]methylidene]hydrazinyl]benzoic acid] as the molecule, how does the EC50 read?
The EC50 was greater than 150 µM.

Which EC50 does the source give for CNC(=Nc1cc(Cl)ccc1Cl)Sc1cc(O)n(-c2ccc(C(=O)OC)cc2)c1O [4-[3-[[(2,5-dichloroanilino)-methyliminomethyl]thio]-2,5-dioxo-1-pyrrolidinyl]benzoic acid methyl ester] here?
Its EC50 is 50 µM.

How did the EC50 turn out when CC(C)(C)c1cc(-c2cs/c(=N\c3ccccc3)n2Cc2ccc(C(=O)O)cc2)cc(C(C)(C)C)c1O [4-[[4-(3,5-ditert-butyl-4-oxidanyl-phenyl)-2-phenylazanyl-1,3-thiazol-3-ium-3-yl]methyl]benzoic acid;bromide] was run?
Its EC50 is greater than 150 µM.

For CCCCCCCn1[nH]c(C)c(C(=O)c2ccccc2)c1=O [4-benzoyl-2-heptyl-5-methyl-2,4-dihydro-3H-pyrazol-3-one], which EC50 is on record?
Its EC50 is greater than 150 µM.

For Cc1ccc(NNC2=CS(=O)(=O)N(C)c3ccsc32)cc1 [4-methyl-N-[(1-methyl-2,2-dioxo-4-thieno[3,2-c]thiazinylidene)amino]aniline], which EC50 is on record?
The EC50 was 4.04 µM.
